In patent publication US6319910A, “Method for inhibiting cyclooxygenase-2 and tumor necrosis factor alpha” (Hospital for Joint Diseases, priority 1998, dated 2001):
“Also recorded” adds a separate entry of the source. Where two headings read alike, the source gives them in different places.

Tests used:
OA-affected cartilage [1] = experiment: Spontaneous PGE2 release by OA-affected cartilage (ex vivo organ culture); type: cell-based, human; conditions: for Effect on PGE2 production: human OA-affected cartilage, words
Method: (§1) Human osteoarthritis affected cartilage spontaneously release nitric oxide (NO) and PGE2 in the medium as previously reported (Amin et al, 1995a; 1997a). The OA-organ cultures were set up as described (Amin et al, 1995a; 1997a). Briefly, total knee articular cartilage from tibial plateau and femoral condyle were harvested from OA-affected patients. The cartilage was mixed and cut into 3-mm discs and 4-6 discs were placed in triplicate or quadruplicate, in a 24-well plate in 2.0 ml of Ham's F-12 medium supplemented with 0.2% endotoxin free human albumin, 10 mM Hepes pH 7.4 and antibiotics in the presence of various modulators, as previously described (Amin et al, 1995a; 1997a). CMT-8 was used at pharmacologically relevant concentrations in DMSO (<0.01% final concentration) as carrier. An equivalent amount of DMSO was also added in the control cultures.
(§2) The p value between control and CMT-8 treated values for PGE2≤0.1 (insignificant) whereas the p values between NMMA treated cartilage and CMT-8 treated cartilage was ≤0.001 (significant). The data are represented as mean±SD as examined by T test when n=3. Data represent±SD value as determined by Student's t test n=4. The P values described are compared with control unstimulated OA-cartilage. The data represents one of the two similar experiments. P values for PGE2 and Nitrite=^a≤0.5; ^b≤0.1; ^c≤0.05; ^d≤0.01.

OA-affected cartilage [2] = experiment: Spontaneous nitrite/nitric oxide release by OA-affected cartilage (ex vivo organ culture); type: cell-based, human; conditions: for Effect on NO production: human OA-affected cartilage, words
Method: as §1, §2

COX-2 [3] = experiment: COX-2 expression in cells/cartilage (general statement); type: cell-based; conditions: words
TNFα = TNFα release in the medium by HEK 293 cells permanently transfected with human proTNFα (ELISA); type: cell-based; conditions: words; for Effect on spontaneous TNFα release: FIG. 8, 16 hours
Method: HEK 293 cells were transfected with the proTNFα cDNA (wild) to prepare a stable cell line. […] A mutant form of proTNFα cDNA which could not be cleaved by the endogenous TNFα convertase (TACE) to release soluble TNFα was also transfected in separate human HEK 293 cells. The soluble TNFα was estimated by ELISA from the wild type and mutant transfected cells from the medium (FIG. 6).
HEK 293 cells were grown as previously described by American Type Culture Collection (ATCC). […] The HEK 293 cells were incubated with CMT-3 to examine the effects of CMT-3 on TNFα release in the medium.
HEK 293 cells were grown under the conditions previously described by ATCC. Various compounds, including CMT-3 and doxycycline/minocyclines were incubated with proTNFα transfected HEK 293 cells releasing TNFα in the medium at 16 hours. […] Soluble TNFα was estimated by ELISA from the medium.

OA = conditions: prophylactic administration; Yu et al (1992); words; cited from earlier work
iNOS mRNA = conditions: Amin et al, 1997b; words; cited from earlier work
bovine chondrocytes [4] = experiment: Nitrite (NO) production in LPS stimulated bovine chondrocytes; type: cell-based; conditions: FIGS. 3 and 9; LPS 100 μg/ml; words
RAW 264.7 cells [5] = experiment: Nitrite (NO) production/accumulation in LPS-stimulated RAW 264.7 cells; type: cell-based, murine; conditions: LPS 100 ng/ml, 16 hours
Method: (§3) Murine macrophages (RAW 263.7 cells) which were grown in Dulbecco's modified eagle medium (DMEM) containing 10% fetal bovine serum, 2 mM glutamine, 50 U/ml penicillin and 50 μg/ml streptomycin, were stimulated with 100 ng/ml LPS to induce both NOS and COX-2 at 16 hr. […] The data presented in FIG. 1 represents mean±SD as examined by T test were n=3.
(§4) The effects of CMTs 1, 2, 3, 5 and 8 on PGE2 and NO accumulation in RAW 264.7 cells were further evaluated as described above for CMT-3. […]

[6] = words; cited from earlier work
bovine chondrocytes [7] = experiment: PGE2 production in LPS stimulated bovine chondrocytes (radioimmunoassay); type: cell-based; conditions: FIGS. 3 and 9, words; for Effect on PGE2 production: LPS 100 μg/ml, 72 hrs
Method: After 48 hours the medium was changed and the cells were incubated with CMT-3 or N-monomethyl arginine (NMMA) for 2 hours before stimulating them with 100 μg/ml LPS. DMSO was used as a carrier for the modulators and the DMSO concentration was maintained (<0.01% v/v) in the cultures. Equivalent amounts of DMSO was also added to the control cultures. The levels of COX-2 dependent PGE2 release was assayed after 72 hrs by radioimmunoassay. […] The data represents mean±SD which was evaluated by T test where n=3.

RAW 264.7 cells [8] = experiment: PGE2 production/accumulation in LPS-stimulated RAW 264.7 cells; type: cell-based, murine; conditions: for activation at 40 µg/mL: Mus musculus, RAW264.7, 16 h, printed in parentheses = increase
Method: as §3, §4

COX-2 [9] = molecular target: T1, COX-2 (Mus musculus, UniProt Q05769); experiment: COX-2 specific activity in cell-free extracts of LPS-stimulated RAW 264.7 cells (PGE2 by RIA); type: biochemical, murine
T1 construct: using total unfractionated cell extracts; endogenous in cells; host or cells: RAW 264.7 cells, LPS-induced; cell-free extract
T1 sequence (Q05769 18-604): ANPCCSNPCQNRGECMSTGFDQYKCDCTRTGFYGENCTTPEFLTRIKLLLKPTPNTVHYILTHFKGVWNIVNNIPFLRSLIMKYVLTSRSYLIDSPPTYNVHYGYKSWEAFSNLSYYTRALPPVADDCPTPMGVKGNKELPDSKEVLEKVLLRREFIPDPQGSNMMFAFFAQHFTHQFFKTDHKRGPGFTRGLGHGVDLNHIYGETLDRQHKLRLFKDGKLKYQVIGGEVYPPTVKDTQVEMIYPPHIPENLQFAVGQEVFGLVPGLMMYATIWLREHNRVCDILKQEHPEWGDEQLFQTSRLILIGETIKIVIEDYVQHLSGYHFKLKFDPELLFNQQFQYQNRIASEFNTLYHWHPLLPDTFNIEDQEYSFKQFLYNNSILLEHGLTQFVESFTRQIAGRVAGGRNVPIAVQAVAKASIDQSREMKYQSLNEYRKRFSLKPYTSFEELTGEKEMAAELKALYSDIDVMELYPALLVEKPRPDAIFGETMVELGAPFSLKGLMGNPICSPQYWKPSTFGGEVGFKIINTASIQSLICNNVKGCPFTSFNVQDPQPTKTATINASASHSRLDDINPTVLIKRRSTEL
Method: Raw 264.7 cells were stimulated with LPS and cell-free extracts were prepared as follows. RAW 264.7 cells were induced with LPS (100 ng/ml) in the presence or absence of tetracyclines or hydrocortisone for 14-20 hours. Following induction, the cells were pelleted at 4° C. and resuspended in Tris buffer: 10 mM, pH 7.4 containing 10 μg/ml each of chymostatin, antipain, leupeptin and pepstatin, 1 mM DDT and 1 mM PMSF. Cells were lysed in a Polytron PA 1200 homogenizer (Kinematica AG, Switzerland) with the cocktail of protease inhibitors after 3 cycles of rapid freeze-thawing. The lysate was centrifuged at 18,000 at 4° C. in an eppendorf centrifuge, and the resulting supernatant was used as cell-free extracts. The protein was measured by BCA assay reagent (Pierce, Rockford, Ill.) using BSA as standard. […] The specific enzyme activity was defined as ng of PGE2 released/mg protein/37° C. for 20 minutes.
RAW 264.7 cells were stimulated with 1 μg/ml of LPS for 16 hours and cell-free extracts were prepared as described above. The extracts were incubated with different modulators for 20 minutes at 37° C. before adding the substrate to initiate the enzyme reaction, which was terminated after 30 minutes by heat inactivation. The data represent one of the two experiments, the PGE2 analysis from each sample was done in triplicates n=3. The p value is a comparison between control and experimentals.

arthritis = conditions: mild and moderate arthritis; Tilley et al, 1995; words; cited from earlier work
NOS = conditions: background; words; cited from earlier work
OA-affected cartilage [10] = conditions: Amin et al, 1997a; words; cited from earlier work
OA-affected cartilage [11] = conditions: Amin et al, 1997a; words; cited from earlier work; remark: listed apart in the source

## C[C@H]1c2cccc(O)c2C(O)=C2C(=O)[C@]3(O)C(O)=C(C(N)=O)C(=O)[C@@H](N(C)C)[C@@H]3[C@@H](O)[C@@H]21 [Doxycycline, doxycycline, reference compound]
OA-affected cartilage [1]
  Effect on PGE2 production: up-regulate COX-2 expression and PGE2 production
OA-affected cartilage [2]
  Effect on NO production: inhibit NO production
COX-2 [3]
  Effect on COX-2 expression: up-regulate COX-2 expression and PGE2 production
TNFα
  Effect on spontaneous TNFα release: inhibit TNFα release
OA
  Severity of OA: markedly reduced the severity of OA

## C[C@H]1c2cccc(O)c2C(O)=C2C(=O)[C@]3(O)C(O)=C(C(N)=O)C(=O)C[C@@H]3[C@@H](O)[C@@H]21 [CMT-8, 6-α-deoxy-5-hydroxy-4-dedimethylaminotetracycline]
iNOS mRNA
  Effect on iNOS mRNA expression: inhibiting iNOS mRNA expression
OA-affected cartilage [1]; Homo sapiens, Table 2, 5 μg/ml
  inhibition at 5 µg/mL: 58%
OA-affected cartilage [1]; Table 2, 5 μg/ml
  PGE2: 94.7 ± 39.2 ng/mL
OA-affected cartilage [1]
  Effect on PGE2 production: inhibits PGE2 in a dose dependent manner; also recorded: significantly inhibit; also recorded: inhibited both NO and PGE2 production; also recorded: inhibits COX-2 expression and PGE2 production
Bovine chondrocytes [4]
  Effect on NO production: inhibit NO and PGE2 production
RAW 264.7 cells [5]; Experiment I, compound 10 μg/ml
  Nitrite: 36.0 µM
RAW 264.7 cells [5]; Mus musculus, RAW264.7, 16 h, Experiment I, compound 10 μg/ml
  inhibition at 10 µg/mL: 28%
[6]
  Antimicrobial activity: no antimicrobial activity
Bovine chondrocytes [7]
  Effect on PGE2 production: inhibit NO and PGE2 production
  Effect on L-NMMA induced PGE2 up-regulation: inhibits the L-NMMA induced PGE2 up-regulation
RAW 264.7 cells [8]; 16 h, 10 ug/mL
  PGE2 accumulation: 27.2 ± 3.4 ng/mL
RAW 264.7 cells [8]; Experiment II, LPS 100 ng/ml, compound 10 μg/ml, 16 hours
  PGE2 accumulation: 24.3 ± 4.5 ng/mL
OA-affected cartilage [2]; Homo sapiens, Table 2, 5 μg/ml
  inhibition at 5 µg/mL: 40%
OA-affected cartilage [2]; Table 2, 5 μg/ml
  Nitrite: 47.0 ± 22.0 µM
OA-affected cartilage [2]
  Effect on NO production: inhibits NOS and NO production; also recorded: significantly inhibit; also recorded: inhibited both NO and PGE2 production; also recorded: inhibiting NO production
COX-2 [9]; CMT-3 27 μM, CMT-8 27 μM, aspirin 56 μM, indomethacin 28 μM, words
  Effect on specific activity of COX-2: significantly inhibited the specific activity of COX-2
COX-2 [9]; Table 3, cell-free extracts, 10 μg (aspirin amount not given)
  COX-2 Specific Activity: 4.3 ± 0.1 PGE2 ng/mg protein
COX-2 [3]
  Effect on COX-2 expression: inhibits COX-2 expression and PGE2 production
TNFα
  Effect on spontaneous TNFα release: inhibit the spontaneous TNFα release
TNFα; HEK 293 cells transfected with proTNFα cDNA, low levels
  Inhibition of TNFα (summary statement): inhibiting TNFα

## CN(C)c1ccc(O)c2c1C[C@H]1C[C@H]3[C@H](N(C)C)C(O)=C(C(N)=O)C(=O)[C@@]3(O)C(O)=C1C2=O [Minocycline, minocycline, reference compound]
OA-affected cartilage [1]; Table 2, minocycline 10 μg/ml
  PGE2: 314.6 ± 58.4 ng/mL
OA-affected cartilage [1]
  Effect on PGE2 production: stimulates PGE2 production
OA-affected cartilage [1]; listed as minocycline
  Effect on PGE2 production: up-regulate COX-2 expression and PGE2 production
RAW 264.7 cells [5]; Experiment I, minocycline 40 μg/ml
  Nitrite: 4.8 µM
RAW 264.7 cells [5]; Experiment II, minocycline 40 μg/ml
  Nitrite: 12.9 µM
RAW 264.7 cells [5]; Mus musculus, RAW264.7, 16 h, read-out: Nitrite % Inhibition, Experiment I, minocycline 40 μg/ml
  inhibition at 40 µg/mL: 90%
RAW 264.7 cells [5]; Mus musculus, RAW264.7, 16 h, read-out: Nitrite % Inhibition, Experiment II, minocycline 40 μg/ml
  inhibition at 40 µg/mL: 41%
arthritis
  Safety and efficacy in arthritis: safe and effective for patients with mild and moderate arthritis
RAW 264.7 cells [8]; Experiment I, LPS 100 ng/ml, minocycline 40 μg/ml, 16 hours
  PGE2 accumulation: 43.7 ± 8.6 ng/mL
RAW 264.7 cells [8]; Experiment II, LPS 100 ng/ml, minocycline 40 μg/ml, 16 hours
  PGE2 accumulation: 49.1 ± 10.0 ng/mL
RAW 264.7 cells [8]; read-out: PGE2 % (Increase), Experiment I, LPS 100 ng/ml, minocycline 40 μg/ml
  activation at 40 µg/mL: 172%
RAW 264.7 cells [8]; read-out: PGE2 % (Increase), Experiment II, LPS 100 ng/ml, minocycline 40 μg/ml
  activation at 40 µg/mL: 257%
OA-affected cartilage [2]; Homo sapiens, Table 2, minocycline 10 μg/ml
  inhibition at 10 µg/mL: 30%
OA-affected cartilage [2]; Table 2, minocycline 10 μg/ml
  Nitrite: 66.0 ± 17.0 µM
OA-affected cartilage [2]; listed as minocycline
  Effect on NO production: suppresses NO production; also recorded: inhibit NO production
COX-2 [3]
  Effect on COX-2 expression: up-regulate COX-2 expression and PGE2 production
TNFα
  Effect on spontaneous TNFα release: inhibit TNFα release

## CN=C(N)NCCC[C@H](N)C(=O)O [L-NMMA, N^G -monomethyl-L-arginine acetate, reference compound]
Bovine chondrocytes [4]
  Effect on NO production: inhibits NO production
NOS
  Effect on PGE2 production: augmenting PGE2 production
  Effect on production of NO: inhibit the production of NO
RAW 264.7 cells [5]; FIG. 1, words
  Effect on NO production: blocks NO production
OA-affected cartilage [10]
  Effect on NOS and NO production: inhibits NOS and NO production
Bovine chondrocytes [7]
  Effect on PGE2 production: augments PGE2 production
OA-affected cartilage [11]
  Effect on PGE2 production: augments PGE2 production
RAW 264.7 cells [8]; FIG. 1, LPS 100 ng/ml, 16 hours, words
  Effect on PGE2 production: augments PGE2 production
